Where two headings read alike, the source gives them in different places.
Assays:
[1] = target: Recombinant SARS-CoV-2 3CL Protease (Severe acute respiratory syndrome coronavirus 2 (2019-nCoV) (SARS-CoV-2), UniProt P0DTD1); assay: biochemical; format: biochemical; settings: 50% SARS-CoV-2 3CL protease inhibitory concentration; read-out: IC50
SARS-CoV-2 = assay: Cytopathic effect (CPE) suppression effect confirmation test using HEK293T/ACE2-TMPRSS2 cells; format: cell-based; settings: Severe acute respiratory syndrome coronavirus 2, HEK-293T, 72 h
[2] = read-out: EC50 (50% SARS-CoV-2 infected cell death inhibitory concentration), class, HEK293T/ACE2-TMPRSS2 cells, CPE suppression, CellTiter-Glo 2.0 after 3 days culture
[3] = HEK293T/ACE2-TMPRSS2 cells, CPE suppression, CellTiter-Glo 2.0 after 3 days culture, read-out: EC50 (50% SARS-CoV-2 infected cell death inhibitory concentration), class

SMILES | IC50 [1] [nM] | EC50 (SARS-CoV-2; [2]) [nM] | EC50 (SARS-CoV-2; [3]) [nM]
Cc1cncc(-n2c(=O)c(Cc3cc(F)c(F)c(F)c3)c(N3CCC4(CCOCC4)C3)n(CC#N)c2=O)c1 [Compound I-111] | < 10 | < 100 | –
Cc1cncc(-n2c(=O)c(Cc3cc(F)c(F)c(F)c3)c(N3CCC(C(N)=O)CC3)n(CC#N)c2=O)c1 [Compound I-112] | < 10 | 100 to 1000 | –
Cc1cncc(-n2c(=O)c(Cc3cc(F)c(F)c(F)c3)c(N3CCC4(CC3)CNC(=O)O4)n(CC#N)c2=O)c1 [Compound I-114] | < 10 | 100 to 1000 | –
Cc1cncc(-n2c(=O)c(Cc3cc(F)c(F)c(F)c3)c(N3CCC(O)(C(F)(F)F)CC3)n(CC#N)c2=O)c1 [Compound I-116] | < 10 | < 100 | –
Cc1cncc(-n2c(=O)c(Cc3cc(F)c(F)c(F)c3)c(N3C[C@H]4CN(C)C[C@H]4C3)n(CC#N)c2=O)c1 [Compound I-117] | < 10 | < 100 | –
Cc1cncc(-n2c(=O)c(Cc3cc(F)c(F)c(F)c3)c(N3CCC(C(F)F)CC3)n(CC#N)c2=O)c1 [Compound I-118] | < 10 | < 100 | –
Cc1cncc(-n2c(=O)c(Cc3cc(F)c(F)c(F)c3)c(N3CCC(C(F)(F)F)CC3)n(CC#N)c2=O)c1 [Compound I-119] | < 10 | < 100 | –
Cc1cncc(-n2c(=O)c(-c3ccc(F)c(Cl)c3)c(-c3nc4ccccc4s3)n(CC#N)c2=O)c1 [Compound I-120] | < 10 | < 100 | –
Cn1cnc(Cn2c(=O)c(-c3cccc(Cl)c3)c(N3Cc4ccccc4C3)n(CC#N)c2=O)n1 [Compound I-122] | > 100 | 1000 to 5000 | –
N#CCn1c(N2Cc3ccccc3C2)c(-c2cccc(Cl)c2)c(=O)n(Cc2ccc[nH]c2=O)c1=O [Compound I-124] | < 10 | < 100 | –
N#CCn1c(Cl)c(-c2ccc(F)c(Cl)c2)c(=O)n(-c2cnc3cc(Cl)ccn23)c1=O [Compound I-126] | > 100 | 1000 to 5000 | –
N#CCn1c(N2CC3(CCOC3)C2)c(Cc2cc(F)c(F)c(F)c2)c(=O)n(-c2cnc3cnccn23)c1=O [Compound I-127] | > 100 | 1000 to 5000 | –
N#CCn1c(N2CC3(CCOC3)C2)c(Cc2cc(F)c(F)c(F)c2)c(=O)n(-c2cnn3ccccc23)c1=O [Compound I-128] | > 100 | 100 to 1000 | –
N#CCn1c(N2CC3(CCOC3)C2)c(Cc2cc(F)c(F)c(F)c2)c(=O)n(-c2cnc3ccc(F)cn23)c1=O [Compound I-129] | 10 to 100 | – | 100 to 1000
N#CCn1c(N2CC3(CCOC3)C2)c(-c2ccc(F)c(Cl)c2)c(=O)n(-c2cnc3ccc(F)cn23)c1=O [Compound I-130] | < 10 | < 100 | –
N#CCn1c(N2CC3(CCOC3)C2)c(-c2ccc(F)c(Cl)c2)c(=O)n(-c2cnc3cc(Cl)ccn23)c1=O [Compound I-131] | < 10 | < 100 | –
Cc1cncc(-n2c(=O)c(-c3ccc(F)c(Cl)c3)c(-c3nc4ccccc4o3)n(CC#N)c2=O)c1 [Compound I-132] | < 10 | < 100 | –
CC(C)(O)C1CN(c2c(-c3ccc(F)c(Cl)c3)c(=O)n(-c3cnc4cc(Cl)ccn34)c(=O)n2CC#N)C1 [Compound I-133] | 10 to 100 | – | < 100
N#CCn1c(N2CC3(CC3)C2)c(-c2ccc(F)c(Cl)c2)c(=O)n(-c2cnc3cc(Cl)ccn23)c1=O [Compound I-134] | < 10 | < 100 | –
N#CCn1c(N2CC(O)(C(F)(F)F)C2)c(-c2ccc(F)c(Cl)c2)c(=O)n(-c2cnc3cc(Cl)ccn23)c1=O [Compound I-135] | 10 to 100 | – | < 100
N#CCn1c(N2CC(O)(C(F)(F)F)C2)c(-c2ccc(F)c(Cl)c2)c(=O)n(-c2cnc3cc(F)ccn23)c1=O [Compound I-136] | < 10 | < 100 | –
CC1(O)CC2(CN(c3c(-c4ccc(F)c(Cl)c4)c(=O)n(-c4cnc5cc(F)ccn45)c(=O)n3CC#N)C2)C1 [Compound I-137] | 10 to 100 | – | 100 to 1000
CC1(O)CC2(CN(c3c(-c4ccc(F)c(Cl)c4)c(=O)n(-c4cnc5cc(Cl)ccn45)c(=O)n3CC#N)C2)C1 [Compound I-138] | 10 to 100 | – | 100 to 1000
N#CCn1c(N2CC(C(F)(F)F)C2)c(-c2ccc(F)c(Cl)c2)c(=O)n(-c2cnc3cc(Cl)ccn23)c1=O [Compound I-139] | 10 to 100 | – | < 100
N#CCn1c(N2CC3(C2)CC(F)(F)C3)c(-c2ccc(F)c(Cl)c2)c(=O)n(-c2cnc3cc(Cl)ccn23)c1=O [Compound I-140] | < 10 | < 100 | –
